In PMC5399312 (Journal of Experimental & Clinical Cancer Research : CR, 2017):

Columns and labels:
[1] = test system: SW480 cells transfected with HK2 siRNA; test: HK2 siRNA knock-down, CCK-8 cytotoxicity; type: cell-based, human; conditions: compared with negative control siRNA cells
Excerpt: SW480 cells were transfected with either two siRNAs against HK2 or one nontargeting siRNA and cultured in 6-well plates according to the manufacturer’s instructions. The target sequences of oligo siRNAs were as follows: siRNA: 5'- […] -3', nontargeting siRNA (Negative control, NC): 5'- […] -3' [21].

[2] = Detection of free Benz in tumor tissue (HPLC); type: in vivo, mouse; conditions: 600 mg/Kg Benz-treated group
Procedure: After recording the weights of tumor mass, tumor tissues from 600 mg/Kg Benz-treated group and 200 mg/Kg liposomal Benz-treated group were lightly washed and blotted to remove any excess blood. Then tumor tissues were homogenized and extracted with methanol, and 100 μL of the extracts were then subjected to HPLC assay. HPLC analysis was conducted by using a reverse phase column (Restek C18 5 μm, 250 mm × 4.6 mm) with a mobile phase of methanol-water- trifluoroacetic acid (20: 1000: 1).

## NC(CO)C(=O)NNCc1ccc(O)c(O)c1O (centres unmarked) [Benz, Benserazide]
[1]
  cytotoxicity to HK2 siRNA transfected cells: fewer effects
[2]
  average concentration of free Benz in tumor tissue: 5.59 µg/mg
